In patent US20210171948A1, “COMPOSITIONS AND METHODS FOR TARGETING GLYPICAN-2 IN THE TREATMENT OF CANCER” (Shepherd Therapeutics, Inc., priority 2019, published 2021):

Tests used:
[1] = test system: GPC2 mRNA; assay: GPC2 mRNA knockdown in multiple cancer cell lines, 96 hour (Example 3); type: cell-based, human; conditions: 96 hour incubation
Method: siRNAs 1-5 from Table 7 were diluted to 40 nM in OptiMEM media and mixed in a 1:3 ratio (weight by volume) with RNAiMAX. This was incubated for 15 minutes at room temperature and dispensed onto cells plated in a 6 well tissue culture plate. Total RNA samples were collected at either 72 hours post transfection to compare knockdown efficiency (FIG. 2A), or at 24, 48, 72 or 96 hours post transfection to determine the extent of GPC2 mRNA knockdown over time (FIG. 2B). Expression levels of mRNA of GPC2 were measured in these samples using primers specific for GPC2 obtained commercially from Thermofisher (Carlsbad, Calif.) and standard qPCR technique.
GPC2 mRNA knockdown and changes in cell viability were assessed in multiple cancer cell lines. Cells were transfected with either a scrambled control siRNA or with GPC2 siRNA sequence 3 or sequence 5 from Table 7 using the RNAiMAX Lipofectamine kit (Invitrogen, Carlsbad, Calif.) as previously described in Example 2, either in 96 well format (for viability assays) or 6 well format (for knockdown assessment). Following a 96 hour incubation period, cells were washed and the viability measurement was assessed using Cell Titer Glo 2.0. Total RNA was isolated from the 6 well plate samples to determine knockdown efficiency.

[2] = test system: CHP212 cells; assay: Carboplatin IC50 in siRNA-transfected cells, Cell Titer Glo 2.0 viability (Example 6); type: cell-based
Method: (§1) GPC2 mRNA expression was reduced using the indicated siRNAs and changes in cell viability were assessed in multiple neuroblastoma cell lines. Cells were transfected with either a control siRNA or with GPC2 siRNA sequences 3, 5 or 7 from Table 7 using the RNAiMAX Lipofectamine kit (Invitrogen, Carlsbad, Calif.) as previously described in 96 wells for viability assays. Carboplatin was added at increasing concentrations (0 to 150 uM) to transfected cells at 24 hours post transfection. Following a 72 hour incubation period, viability measurements were made using Cell Titer Glo 2.0.

[3] = test system: CHLA-90 cells; assay: as above; type: cell-based
Method: as §1

[4] = test system: SH-SY5Y cells; assay: as above; type: cell-based; conditions: SH-SY5Y cells transfected with the labelled siRNA; carboplatin added 24 hours post transfection, 72 hour incubation
Method: as §1

[5] = test system: SK-N-BE2 cells; assay: as above; type: cell-based
Method: as §1

[6] = test system: GPC2 mRNA; assay: GPC2 mRNA knockdown in cell lines of the cisplatin experiment (Example 5); type: cell-based, human
Method: GPC2 mRNA was reduced using the indicated siRNAs and changes in cell viability were assessed in multiple cancer cell lines, in combination with Cisplatin treatment. Cells were transfected with either a scrambled control siRNA or with GPC2 siRNA sequences 3 or 5 from Table 7 using the RNAiMAX Lipofectamine kit (Invitrogen, Carlsbad, Calif.), as previously described, in either in 96 well (for viability assays) or 6 well format (for total RNA). Cisplatin was added at increasing concentrations (0 to 30 uM) to transfected cells at 24 hours post transfection. Following a 72 hour incubation period, cell viability was measured using Cell Titer Glo 2.0. Total RNA samples were also isolated to measure knockdown efficiency.

[7] = GIST-T1 (Gastrointestinal Stromal)

Q: How did the “% GPC2 knockdown” value ([1]; CHP212 (Neuroblastoma)) turn out when “GPC2 siRNA 3: siRNA duplex: sense CCUGCUUGGACCUCGAUAA[dT][dT] (SEQ ID NO: 207), anti-sense UUAUCGAGGUCCAAGCAGG[dT][dT] (SEQ ID NO: 208) (sense CCUGCUUGGACCUCGAUAANN; antisense UUAUCGAGGUCCAAGCAGGNN; 3' dTdT overhangs, chemistry not fully specified; listed as Homo sapiens)” was run?
A: 50%

Q: And the “% GPC2 knockdown” value ([1]; COV362 (Ovarian Carcinoma))?
A: 85%

Q: What about the “% GPC2 knockdown” value [1, 7] of the same substance?
A: 61%

Q: And the “% GPC2 knockdown” value ([1]; IMR32 (Neuroblastoma))?
A: 36%

Q: What about the “% GPC2 knockdown” value ([1]; MCF7 (Breast)) of the same substance?
A: 72%

Q: What about the “% GPC2 knockdown” value ([1]; RH30 (Rhabdomyosarcoma)) of the same substance?
A: 78%

Q: What about the “% GPC2 knockdown” value ([1]; RH41 (Rhabdomyosarcoma)) of the same substance?
A: 37%

Q: What about the “% GPC2 knockdown” value ([1]; SKNAS (Neuroblastoma)) of the same substance?
A: 25%

Q: And the “% GPC2 knockdown” value ([1]; SNU16 (Gastric))?
A: 53%

Q: What about the “% GPC2 knockdown” value ([1]; TC32 (Ewing's Sarcoma)) of the same substance?
A: 69%

Q: And the “% GPC2 knockdown” value ([1]; TC71 (Ewing's Sarcoma))?
A: 42%

Q: What about the “% GPC2 knockdown” value ([1]; TOV112D (Ovarian Carcinoma)) of the same substance?
A: 89%

Q: What about the “GPC2 knockdown across the cell lines of Table 8” value ([1]; multiple cancer cell lines) of the same substance?
A: GPC2 knockdown was observed in each cell line

Q: What about the “Data Summary: effect of knockdown on sensitivity to carboplatin” value (“Data Summary: effect of knockdown” below) ([2]; CHP212) of the same substance?
A: increases sensitivity to

Q: And the IC50 ([2]; CHP212 cells transfected with the labelled siRNA, carboplatin added 24 hours post transfection, 72 hour incubation)?
A: 19.9 µM

Q: What about the “Data Summary: effect of knockdown” value ([3]; CHLA-90) of the same substance?
A: increases sensitivity to

Q: What about the IC50 ([3]; CHLA-90 cells transfected with the labelled siRNA, carboplatin added 24 hours post transfection, 72 hour incubation) of the same substance?
A: 100 µM

Q: And the IC50 [4]?
A: 2.3 µM

Q: What about the “Data Summary: effect of knockdown” value ([5]; SK-N-BE2) of the same substance?
A: increases sensitivity to

Q: And the IC50 ([5]; SK-N-BE2 cells transfected with the labelled siRNA, carboplatin added 24 hours post transfection, 72 hour incubation)?
A: 27.9 µM

Q: And the “% GPC2 knockdown” value ([6]; CHLA-90 (Neuroblastoma))?
A: 50%

Q: And the “% GPC2 knockdown” value ([6]; CHLA-136 (Neuroblastoma))?
A: 25%

Q: And the “% GPC2 knockdown” value ([6]; CHLA-172 (Neuroblastoma))?
A: 5%

Q: And the “% GPC2 knockdown” value ([6]; CHP212 (Neuroblastoma))?
A: 60%

Q: What about the “% GPC2 knockdown” value ([6]; COV362 (Ovarian cancer)) of the same substance?
A: 85%

Q: And the “% GPC2 knockdown” value [6, 7]?
A: 55%

Q: And the “% GPC2 knockdown” value ([6]; KELLY (Neuroblastoma))?
A: 65%

Q: What about the “% GPC2 knockdown” value ([6]; RH30 (Rhabdomyosarcoma)) of the same substance?
A: 80%

Q: And the “% GPC2 knockdown” value ([6]; RH41 (Rhabdomyosarcoma))?
A: 55%

Q: What about the “% GPC2 knockdown” value ([6]; SH-SY5Y (Neuroblastoma)) of the same substance?
A: 55%

Q: And the “% GPC2 knockdown” value ([6]; SK-N-BE2 (Neuroblastoma))?
A: 55%

Q: What about the “% GPC2 knockdown” value ([6]; SKNAS (Neuroblastoma)) of the same substance?
A: 40%

Q: What about the “% GPC2 knockdown” value ([6]; SNU16 (Gastric carcinoma)) of the same substance?
A: 50%

Q: And the “% GPC2 knockdown” value ([6]; TC32 (Ewing's sarcoma))?
A: 70%

Q: And the “% GPC2 knockdown” value ([6]; TC71 (Ewing's sarcoma))?
A: 55%

Q: And the “% GPC2 knockdown” value ([6]; TOV112D (Ovarian cancer))?
A: 90%
